Test results from patent publication US11207312B2, “Metallo-beta-lactamase inhibitors and methods of use thereof” (priority 2017, dated 2021).

Key:
NDM-1 = NDM-1 (Klebsiella pneumoniae, UniProt C7C422); experiment: biochemical; assay type: biochemical; conditions: CCF2-FA fluorescence assay, 2 hours at 25° C.
Procedure, shortened: (§1)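 In pH 7 phosphate buffer (100 mM) with 10 μM ZnSO4 and 0.005% Tween-20, CCF2-FA hydrolysis (1.25 μM) by 1 pM NDM-1, 2 pM IMP-1 or 30 pM VIM-1 was run 2 h at 25° C with inhibitor from 20 to 0.00063 μM. Ex 405/em 460 nm signal fitted to a 4-parameter curve for IC50.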

IMP-1 = IMP-1 (Serratia marcescens, UniProt P52699); experiment: biochemical; conditions: CCF2-FA fluorescence assay, 2 hours at 25° C.; read-out: IMP1 IC50
Sequence of IMP-1 (P52699 whole entry, looked up, species assumed): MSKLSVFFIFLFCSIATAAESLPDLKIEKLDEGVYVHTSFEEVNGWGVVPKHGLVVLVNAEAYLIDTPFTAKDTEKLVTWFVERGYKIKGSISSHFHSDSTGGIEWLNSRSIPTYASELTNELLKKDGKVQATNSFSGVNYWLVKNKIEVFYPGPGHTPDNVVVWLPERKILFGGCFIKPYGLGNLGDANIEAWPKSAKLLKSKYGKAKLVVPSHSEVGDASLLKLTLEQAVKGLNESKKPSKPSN
Procedure, shortened: as §1

VIM-1 = VIM-1 (Pseudomonas aeruginosa (strain ATCC 15692 / DSM 22644 / CIP 104116 / JCM 14847 / LMG 12228 / 1C / PRS 101 / PAO1), UniProt A0A0F7KYQ8); experiment: biochemical; conditions: CCF2-FA fluorescence assay, 2 hours at 25° C.; read-out: VIM1 IC50
Procedure, shortened: as §1

VIM-2 = VIM-2 (Escherichia coli, UniProt Q5U7L7); experiment: biochemical; conditions: CCF2-FA fluorescence assay; read-out: VIM2 IC50
[1] = test system: Escherichia coli expressing NDM-1 (CLB30016); assay type: cell-based; conditions: with imipenem 1 μg/ml; 95% inhibition of bacterial growth
Procedure, shortened: (§2)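 Synergy with imipenem at a fixed 1 μg/ml was scored by absorbance following 22–24 h incubation at 35 °C; the potentiating concentration (MITC95) was the lowest giving 95% growth inhibition.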

[2] = test system: Klebsiella pneumoniae expressing VIM-1 (IHMA599644); assay type: cell-based; conditions: with imipenem 1 μg/ml; 95% inhibition of bacterial growth
Procedure, shortened: as §2

[3] = test system: Serratia marcescens expressing IMP-1 (CL5741); assay type: cell-based; conditions: with imipenem 1 μg/ml; 95% inhibition of bacterial growth
Procedure, shortened: as §2

[4] = test system: P. aeruginosa MB9798 (efflux+, IMP-1 plasmid); conditions: for MB9798 MITC95 P. aeruginosa uM Efflux WT: efflux + (MB9798) strain, imipenem at 2 μg/mL, in the presence of a class A, C, D serine β-lactamase inhibitor closely related to relebactam; for Efflux ratio: fold difference between efflux+ (MB9798) and efflux− (MB9799) strains
Procedure, shortened: (§3)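 Isogenic P. aeruginosa PAO1 strains (efflux+ and multiple-efflux-pump-disrupted) carrying plasmid IMP-1, with inducible AmpC, tested by broth microdilution. Imipenem and/or ceftazidime fixed, usually at CLSI breakpoint, plus fixed class A/C β-lactamase inhibitor; titrated MBL inhibitor concentration restoring susceptibility recorded and compared between strains as efflux fold difference.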

[5] = test system: P. aeruginosa MB9799 (efflux-, IMP-1 plasmid); assay type: cell-based, Pseudomonas aeruginosa; conditions: efflux − (MB9799) strain; imipenem at 2 μg/mL; in the presence of a class A, C, D serine β-lactamase inhibitor closely related to relebactam
Procedure, shortened: as §3

Sequence of NDM-1 (C7C422 whole entry, looked up, species assumed): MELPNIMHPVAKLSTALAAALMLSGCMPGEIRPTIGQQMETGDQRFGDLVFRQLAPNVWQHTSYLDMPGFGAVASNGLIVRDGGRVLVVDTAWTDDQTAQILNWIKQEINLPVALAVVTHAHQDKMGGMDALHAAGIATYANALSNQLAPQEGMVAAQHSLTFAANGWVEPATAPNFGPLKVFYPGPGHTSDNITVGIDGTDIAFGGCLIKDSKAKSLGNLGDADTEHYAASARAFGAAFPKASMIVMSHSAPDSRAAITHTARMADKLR

## NS(=O)(=O)c1c(S(=O)(=O)N[C@@H]2CCNC2)ccc(NCCN2CCOCC2)c1-c1nnn[nH]1 [Example 64, 4-[(2-morpholin-4-ylethyl)amino]-N1-[(3R)-pyrrolidin-3-yl]-3-(1H-tetrazol-5-yl)benzene-1,2-disulfonamide]
NDM-1
  IC50: 5.51 nM
IMP-1
  IC50: 3.26 nM
VIM-1
  IC50: 1.62 nM
VIM-2
  IC50: 8.19 nM
[1]
  CLB30016 E. coli MITC95 NDM: 1.56 µM
[2]
  IHMA599644 K. pneumoniae MITC95 VIM: 6.25 µM
[3]
  CL5741 S. marcescens MITC95 IMP: 1.56 µM
[4]
  MB9798 MITC95 P. aeruginosa uM Efflux WT: 25.00 µM
  Efflux ratio: 15.99
[5]
  MB9799 MITC95 P. aeruginosa uM Efflux Mutant: 1.56 µM

## CN1CCN(c2ccc(S(=O)(=O)N[C@@H]3CCNC3)c(S(N)(=O)=O)c2-c2nnn[nH]2)CC1=O [Example 65, 4-(4-methyl-3-oxopiperazin-1-yl)-N1-[(3R)-pyrrolidin-3-yl]-3-(1H-tetrazol-5-yl)benzene-1,2-disulfonamide]
NDM-1
  IC50: 1.28 nM
IMP-1
  IC50: 2.26 nM
VIM-1
  IC50: 0.22 nM
VIM-2
  IC50: 1 nM
[1]
  CLB30016 E. coli MITC95 NDM: 3.13 µM
[2]
  IHMA599644 K. pneumoniae MITC95 VIM: 6.25 µM
[3]
  CL5741 S. marcescens MITC95 IMP: 3.13 µM
[4]
  MB9798 MITC95 P. aeruginosa uM Efflux WT: 3.13 µM
  Efflux ratio: 2.00
[5]
  MB9799 MITC95 P. aeruginosa uM Efflux Mutant: 1.56 µM

## NS(=O)(=O)c1c(S(=O)(=O)N[C@@H]2CCNC2)ccc(NC2CCOCC2)c1-c1nnn[nH]1 [Example 66, N1-[(3R)-pyrrolidin-3-yl]-4-(tetrahydro-2H-pyran-4-ylamino)-3-(1H-tetrazol-5-yl)benzene-1,2-disulfonamide]
NDM-1
  IC50: 0.62 nM
IMP-1
  IC50: 4.48 nM
VIM-1
  IC50: 1.76 nM
VIM-2
  IC50: 3.7 nM
[1]
  CLB30016 E. coli MITC95 NDM: 6.25 µM
[2]
  IHMA599644 K. pneumoniae MITC95 VIM: 6.25 µM
[3]
  CL5741 S. marcescens MITC95 IMP: 3.13 µM
[4]
  MB9798 MITC95 P. aeruginosa uM Efflux WT: 25.00 µM
  Efflux ratio: 15.99
[5]
  MB9799 MITC95 P. aeruginosa uM Efflux Mutant: 1.56 µM

## CN(C)[C@H]1CCN(c2ccc(S(=O)(=O)N[C@@H]3CCNC3)c(S(N)(=O)=O)c2-c2nnn[nH]2)C1 [Example 67, 4-[(3S)-3-(dimethylamino)pyrrolidin-1-yl]-N1-[(3R)-pyrrolidin-3-yl]-3-(1H-tetrazol-5-yl)benzene-1,2-disulfonamide]
NDM-1
  IC50: 85 nM
IMP-1
  IC50: 60.7 nM
VIM-1
  IC50: 4.32 nM
VIM-2
  IC50: 18.5 nM
[1]
  CLB30016 E. coli MITC95 NDM: 1.56 µM
[2]
  IHMA599644 K. pneumoniae MITC95 VIM: 1.56 µM
[3]
  CL5741 S. marcescens MITC95 IMP: 3.13 µM
[4]
  MB9798 MITC95 P. aeruginosa uM Efflux WT: 12.50 µM
  Efflux ratio: 8.00
[5]
  MB9799 MITC95 P. aeruginosa uM Efflux Mutant: 1.56 µM

## CN(C)[C@@H]1CCN(c2ccc(S(=O)(=O)N[C@@H]3CCNC3)c(S(N)(=O)=O)c2-c2nnn[nH]2)C1 [Example 68, 4-[(3R)-3-(dimethylamino)pyrrolidin-1-yl]-N1-[(3R)-pyrrolidin-3-yl]-3-(1H-tetrazol-5-yl)benzene-1,2-disulfonamide]
NDM-1
  IC50: 22.1 nM
IMP-1
  IC50: 16.2 nM
VIM-1
  IC50: 2.11 nM
VIM-2
  IC50: 17.8 nM
[1]
  CLB30016 E. coli MITC95 NDM: 0.78 µM
[2]
  IHMA599644 K. pneumoniae MITC95 VIM: 1.56 µM
[3]
  CL5741 S. marcescens MITC95 IMP: 1.56 µM
[4]
  MB9798 MITC95 P. aeruginosa uM Efflux WT: 12.50 µM
  Efflux ratio: 8.00
[5]
  MB9799 MITC95 P. aeruginosa uM Efflux Mutant: 1.56 µM

## NS(=O)(=O)c1c(S(=O)(=O)N[C@@H]2CCNC2)ccc(N2CCCN(CCO)CC2)c1-c1nnn[nH]1 [Example 69, 4-[4-(2-hydroxyethyl)-1,4-diazepan-1-yl]-N1-[(3R)-pyrrolidin-3-yl]-3-(1H-tetrazol-5-yl)benzene-1,2-disulfonamide]
NDM-1
  IC50: 16.2 nM
IMP-1
  IC50: 29.6 nM
VIM-1
  IC50: 1.6 nM
VIM-2
  IC50: 13.3 nM
[1]
  CLB30016 E. coli MITC95 NDM: 0.78 µM
[2]
  IHMA599644 K. pneumoniae MITC95 VIM: 1.56 µM
[3]
  CL5741 S. marcescens MITC95 IMP: 3.13 µM
[4]
  MB9798 MITC95 P. aeruginosa uM Efflux WT: 12.50 µM
  Efflux ratio: 4.00
[5]
  MB9799 MITC95 P. aeruginosa uM Efflux Mutant: 3.13 µM

## NS(=O)(=O)c1c(S(=O)(=O)N[C@@H]2CCNC2)ccc(N2CC[C@@H](CO)C2)c1-c1nnn[nH]1 [Example 70, 4-[(3R)-3-(hydroxymethyl)pyrrolidin-1-yl]-N1-[(3R)-pyrrolidin-3-yl]-3-(1H-tetrazol-5-yl)benzene-1,2-disulfonamide]
NDM-1
  IC50: 0.45 nM
IMP-1
  IC50: 0.51 nM
VIM-1
  IC50: 0.57 nM
VIM-2
  IC50: 1.25 nM
[1]
  CLB30016 E. coli MITC95 NDM: 3.91 µM
[2]
  IHMA599644 K. pneumoniae MITC95 VIM: 7.81 µM
[3]
  CL5741 S. marcescens MITC95 IMP: 3.91 µM
[4]
  MB9798 MITC95 P. aeruginosa uM Efflux WT: 2.34 µM
  Efflux ratio: 1.20
[5]
  MB9799 MITC95 P. aeruginosa uM Efflux Mutant: 1.95 µM

## CC1(O)CCN(c2ccc(S(=O)(=O)N[C@@H]3CCNC3)c(S(N)(=O)=O)c2-c2nnn[nH]2)CC1 [Example 71, 4-(4-hydroxy-4-methylpiperidin-1-yl)-N1-[(3R)-pyrrolidin-3-yl]-3-(1H-tetrazol-5-yl)benzene-1,2-disulfonamide]
NDM-1
  IC50: 0.26 nM
IMP-1
  IC50: 0.7 nM
VIM-1
  IC50: 0.53 nM
VIM-2
  IC50: 1.69 nM
[1]
  CLB30016 E. coli MITC95 NDM: 3.13 µM
[2]
  IHMA599644 K. pneumoniae MITC95 VIM: 6.25 µM
[3]
  CL5741 S. marcescens MITC95 IMP: 3.13 µM
[4]
  MB9798 MITC95 P. aeruginosa uM Efflux WT: 1.56 µM
  Efflux ratio: 1.00
[5]
  MB9799 MITC95 P. aeruginosa uM Efflux Mutant: 1.56 µM

## C[N+](C)(C)CCCCNc1ccc(S(=O)(=O)N[C@@H]2CCNC2)c(S(N)(=O)=O)c1-c1nnn[nH]1 [Example 72, N,N,N-trimethyl-4-({4-[(3R)-pyrrolidin-3-ylsulfamoyl]-3-sulfamoyl-2-(1H-tetrazol-5-yl)phenyl}amino)butan-1-aminium]
NDM-1
  IC50: 3.31 nM
IMP-1
  IC50: 9.32 nM
VIM-1
  IC50: 2.01 nM
VIM-2
  IC50: 6.04 nM
[1]
  CLB30016 E. coli MITC95 NDM: 1.56 µM
[2]
  IHMA599644 K. pneumoniae MITC95 VIM: 6.25 µM
[3]
  CL5741 S. marcescens MITC95 IMP: 3.13 µM
[4]
  MB9798 MITC95 P. aeruginosa uM Efflux WT: 25.00 µM
  Efflux ratio: 8.00
[5]
  MB9799 MITC95 P. aeruginosa uM Efflux Mutant: 3.13 µM

## NC1CCN(c2ccc(S(=O)(=O)N[C@@H]3CCNC3)c(S(N)(=O)=O)c2-c2nnn[nH]2)CC1 [Example 73, 4-(4-aminopiperidin-1-yl)-N1-[(3R)-pyrrolidin-3-yl]-3-(1H-tetrazol-5-yl)benzene-1,2-disulfonamide]
NDM-1
  IC50: 9.84 nM
IMP-1
  IC50: 16.6 nM
VIM-1
  IC50: 0.31 nM
VIM-2
  IC50: 16.1 nM
[1]
  CLB30016 E. coli MITC95 NDM: 0.78 µM
[2]
  IHMA599644 K. pneumoniae MITC95 VIM: 1.56 µM
[3]
  CL5741 S. marcescens MITC95 IMP: 1.56 µM
[4]
  MB9798 MITC95 P. aeruginosa uM Efflux WT: 1.56 µM
  Efflux ratio: 2.00
[5]
  MB9799 MITC95 P. aeruginosa uM Efflux Mutant: 0.78 µM

## CNCC1CCN(c2ccc(S(=O)(=O)N[C@@H]3CCNC3)c(S(N)(=O)=O)c2-c2nnn[nH]2)CC1 [Example 74, 4-{4-[(methylamino)methyl]piperidin-1-yl}-N1-[(3R)-pyrrolidin-3-yl]-3-(1H-tetrazol-5-yl)benzene-1,2-disulfonamide]
NDM-1
  IC50: 3 nM
IMP-1
  IC50: 6.8 nM
VIM-1
  IC50: 0.45 nM
VIM-2
  IC50: 6.86 nM
[1]
  CLB30016 E. coli MITC95 NDM: 0.78 µM
[2]
  IHMA599644 K. pneumoniae MITC95 VIM: 3.13 µM
[3]
  CL5741 S. marcescens MITC95 IMP: 1.56 µM
[4]
  MB9798 MITC95 P. aeruginosa uM Efflux WT: 1.56 µM
  Efflux ratio: 2.00
[5]
  MB9799 MITC95 P. aeruginosa uM Efflux Mutant: 0.78 µM

## NS(=O)(=O)c1c(S(=O)(=O)N[C@@H]2CCNC2)ccc(NCCN2CCNCC2)c1-c1nnn[nH]1 [Example 75, 4-[(2-piperazin-1-ylethyl)amino]-N1-[(3R)-pyrrolidin-3-yl]-3-(1H-tetrazol-5-yl)benzene-1,2-disulfonamide]
NDM-1
  IC50: 162 nM
IMP-1
  IC50: 178 nM
VIM-1
  IC50: 6.75 nM
VIM-2
  IC50: 200 nM
[1]
  CLB30016 E. coli MITC95 NDM: 6.25 µM
[2]
  IHMA599644 K. pneumoniae MITC95 VIM: 3.13 µM
[3]
  CL5741 S. marcescens MITC95 IMP: 12.50 µM
[4]
  MB9798 MITC95 P. aeruginosa uM Efflux WT: 25.00 µM
  Efflux ratio: 8.00
[5]
  MB9799 MITC95 P. aeruginosa uM Efflux Mutant: 3.13 µM

## NCCN1CCN(c2ccc(S(=O)(=O)N[C@@H]3CCNC3)c(S(N)(=O)=O)c2-c2nnn[nH]2)CC1 [Example 76, 4-[4-(2-aminoethyl)piperazin-1-yl]-N1-[(3R)-pyrrolidin-3-yl]-3-(1H-tetrazol-5-yl)benzene-1,2-disulfonamide]
NDM-1
  IC50: 4.35 nM
IMP-1
  IC50: 10.7 nM
VIM-1
  IC50: 1.6 nM
VIM-2
  IC50: 18.1 nM
[1]
  CLB30016 E. coli MITC95 NDM: 1.56 µM
[2]
  IHMA599644 K. pneumoniae MITC95 VIM: 3.13 µM
[3]
  CL5741 S. marcescens MITC95 IMP: 3.13 µM
[4]
  MB9798 MITC95 P. aeruginosa uM Efflux WT: 1.56 µM
  Efflux ratio: 1.00
[5]
  MB9799 MITC95 P. aeruginosa uM Efflux Mutant: 1.56 µM
